From patent publication US20250281498A1, “FUSED AMINO PYRIMIDINE COMPOUNDS FOR TREATMENT OF SYNUCLEINOPATHIES AND TDP-43 PROTEINOPATHIES” (Ovid Therapeutics Inc., priority 2024, published 2025)

How the values were obtained:
KCC2-S940A = biological target: T1, KCC2-S940A (Homo sapiens, UniProt Q9H2X9, S963A); assay: TI+ flux assay, HEK-293 cells expressing KCC2-S940A; type: cell-based
T1 construct: expressed in transfected cells; host or cells: HEK-293
T1 sequence (Q9H2X9 1-1116 isoform Q9H2X9-2 S940A): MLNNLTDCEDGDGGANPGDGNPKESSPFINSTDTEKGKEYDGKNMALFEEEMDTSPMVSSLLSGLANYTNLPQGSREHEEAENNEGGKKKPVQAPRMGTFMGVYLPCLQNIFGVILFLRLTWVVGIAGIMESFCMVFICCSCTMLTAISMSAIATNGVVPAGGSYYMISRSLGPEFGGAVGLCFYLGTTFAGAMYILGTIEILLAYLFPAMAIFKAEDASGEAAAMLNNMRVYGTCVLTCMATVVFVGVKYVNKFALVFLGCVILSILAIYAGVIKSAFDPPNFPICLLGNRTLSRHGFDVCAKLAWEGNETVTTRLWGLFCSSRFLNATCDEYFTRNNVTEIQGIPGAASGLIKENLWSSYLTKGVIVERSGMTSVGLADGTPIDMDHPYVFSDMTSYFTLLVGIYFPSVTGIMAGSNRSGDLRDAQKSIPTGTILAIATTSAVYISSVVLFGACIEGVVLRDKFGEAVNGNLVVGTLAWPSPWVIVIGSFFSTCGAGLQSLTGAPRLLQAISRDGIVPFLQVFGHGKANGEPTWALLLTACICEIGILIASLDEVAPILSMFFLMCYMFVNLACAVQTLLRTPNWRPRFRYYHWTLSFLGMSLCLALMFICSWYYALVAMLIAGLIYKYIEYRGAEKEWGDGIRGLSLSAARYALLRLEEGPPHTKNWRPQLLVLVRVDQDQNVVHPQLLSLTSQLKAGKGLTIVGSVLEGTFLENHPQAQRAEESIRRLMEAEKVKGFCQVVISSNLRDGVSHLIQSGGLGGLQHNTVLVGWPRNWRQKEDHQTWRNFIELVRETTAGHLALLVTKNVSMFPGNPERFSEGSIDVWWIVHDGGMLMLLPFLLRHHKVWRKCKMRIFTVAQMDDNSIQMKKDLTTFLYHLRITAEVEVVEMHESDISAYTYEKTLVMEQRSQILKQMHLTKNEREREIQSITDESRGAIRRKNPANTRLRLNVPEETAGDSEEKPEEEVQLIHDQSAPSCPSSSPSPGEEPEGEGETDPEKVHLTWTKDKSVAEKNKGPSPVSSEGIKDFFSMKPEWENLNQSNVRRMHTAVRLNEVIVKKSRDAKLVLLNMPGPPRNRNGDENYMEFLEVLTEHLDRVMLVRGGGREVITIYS
Experimental: FLIPR TI Flux assay. HEK-293 cells were washed with HBSS, and then incubated with loading buffer containing TI sensitive fluorescent dye (https://www.moleculardevices.com), 20 μM bumetanide 20 μM ouabain and 2.5 mM probenecid for 1 h at room temperature (RT) under control conditions or with drugs in the dark using a FlexStation 3 microplate reader (Molecular Devices) and imaged […] for 30 min. Stimulus buffer was added containing 5 mM K^+/0.5 mM Tl^+ and cells were imaged every 1.5 over a 190 second time course The initial rate Tl^+ uptake (Relative Fluorescence Units (RFU) per second) was determined following addition of the stimulus buffer as outlined previously (Conway et al., 2017, supra) (Lee et al., 2022, supra).
Several studies have shown that the activity and plasma membrane accumulation of KCC2 is potentiated via phosphorylation of S940, a process mediated by the activity of protein kinase C and protein phosphatase 1 (Lee et al., 2011, supra; Lee et al., J Biol Chem 282, 29777-29784 (2007); Moore et al., Proc. Natl. Acad. Sci. U.S.A. 115, 10166-10171 (2018); Moore et al., Trends Neurosci. 40, 555-571 (2017); Silayeva et al., Proc. Natl. Acad. Sci. U.S.A. 112, 3523-3528 (2015)). […] Compared to KCC2, effects on KCC3, KCC4, and NKCC1 were only seen at concentrations more than 35-fold that of KCC2 (>100 μM) (FIG. 1G).

[1] = test system: acute brain slices exposed to 0-Mg; assay: late recurrent discharges in acute brain slices exposed to 0-Mg
[2] = test system: 18-20 Div hippocampal neurons; assay: gramicidin-perforated patch-clamp recording of EGABA in hippocampal neurons; type: cell-based, Sprague Dawley; conditions: 300 nM
Experimental: Neuronal Cultures. Hippocampal neurons were prepared from Sprague Dawley E18 embryos and plated at 450,000 per dish and maintained at 37° C. in a humidified 5% CO2 incubator for 10-25 days before experimentation (Lee et al., Nat. Neurosci. 14, 736-743 (2011)).
At this developmental stage, GABAAR receptor activation leads to hyperpolarization, a phenomenon critically dependent upon KCC2 (Kontou et al., J Biol Chem, 100364 (2021)).
Neuronal Patch clamp assays. Neuronal cell culture recordings were performed in bath saline at 34° C. For gramicidin perforated-patch experiments, pipettes contained (in mM): 140 KCl and 10 HEPES, pH 7.4 KOH. For whole-cell experiments, pipettes contained (in mM): 115 K-meth-SO4, 30 KCl, 2 Mg-ATP, 4 Na-ATP, 0.4 Na-GTP, and 10 HEPES, pH 7.4 KOH. Bath saline contained the following (in mM): 140 NaCl, 2.5 KCl, 2.5 CaCl2, 2.5 MgCl2, 10 HEPES, and 11 glucose, pH 7.4 NaOH (Kontou et al., 2021, supra). All compound solutions were applied to cells using a three-barreled 700 μm pipe positioned just above the cell (Warner Instruments). […] All voltages from whole-cell experiments were corrected offline using a calculated liquid junction potential value (13.6 mV) in Clampex (Molecular Devices). For gramicidin perforated-patch experiments, intracellular Cl^− values were back-calculated using measured EGABA values and the Nernst equation: […]

C[C@@H]1CN(c2nc3c(c(Nc4ccc(C5CCCCC5)cc4)n2)COC3)CCO1 [Compound A, (R)—N-(4-cyclohexylphenyl)-2-(2-methylmorpholino)-5,7-dihydrofuro[3,4-d]pyrimidin-4-amine]
activity of KCC2-S940A construct (KCC2-S940A): increased the activity
development of late recurrent discharges (LRDs) [1]: reduced
reduction in neuronal Cl− ([2]; 15 min, calculated from EGABA): 2.2 ± 0.6 mM
EGABA after treatment ([2]; at 15 min (from −75±3.1 at 0 min), bumetanide and TTX present): −85.1±4.2 mV
